In general, IC50 refers to the concentration needed to halve the response being measured.

A value given as a limit tells only on which side of the number the result lay.

T1 sequence (P49238 whole entry): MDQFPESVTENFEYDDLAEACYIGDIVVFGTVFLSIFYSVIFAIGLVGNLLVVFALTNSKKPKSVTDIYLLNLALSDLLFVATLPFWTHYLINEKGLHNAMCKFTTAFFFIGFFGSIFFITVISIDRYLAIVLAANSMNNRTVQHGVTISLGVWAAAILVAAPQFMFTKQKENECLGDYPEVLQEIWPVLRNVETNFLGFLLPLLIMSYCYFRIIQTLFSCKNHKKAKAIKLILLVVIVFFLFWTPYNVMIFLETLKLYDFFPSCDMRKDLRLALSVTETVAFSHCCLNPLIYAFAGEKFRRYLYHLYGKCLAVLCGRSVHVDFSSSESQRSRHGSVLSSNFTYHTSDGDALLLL

One experiment addresses T1, CX3CR1 (Homo sapiens (Human), UniProt P49238). Description: hCX3CR1 [125I]-CX3CL1 displacement binding (SPA). Particulars: CHO-hCX3CR1 membranes, [125I]-CX3CL1, SPA beads. The protocol:
hCX3CR1 [^125I]-CX3CL1 Displacement Binding (SPA)
CHO-hCX3CR1 membranes (3 μg per well) together with […] [^125I]-CX3CL1 (Perkin Elmer) and different concentrations of competitor compound were incubated together with 400 μg/well WGA coated PVT SPA beads (Perkin Elmer) in 50 mM HEPES (pH 7.4), 10 mM MgCl2, 1 mM EDTA and 0.1% Gelatin in a Greiner polystyrene flat-bottom 384-well plate. The plate was incubated for 20 h at room temperature before the radioactivity was measured using a MicroBeta Trilux reader (PerkinElmer). The DMSO concentration was held constant at 1%.
Consider `CC(C)C[C@H](CO)Nc1nc(C[C@@H](C)c2ccc(Cl)c(Cl)c2)nc(NS(C)(=O)=O)n1` (single isomer, unassigned) [Example 2, N-(4-((S*)-2-(3,4-Dichlorophenyl)propyl)-6-(((R)-1-hydroxy-4-methylpentan-2-yl)amino)-1,3,5-triazin-2-yl)methanesulfonamide], for which the IC50 amounted to 362 nM.

`CC(C)C[C@H](CO)Nc1nc(C[C@H](C)c2ccc(F)cc2)nc(NS(C)(=O)=O)n1` (single isomer, unassigned) [Example 80, N-(4-((S*)-2-(4-Fluorophenyl)propyl)-6-(((R)-1-hydroxy-4-methylpentan-2-yl)amino)-1,3,5-triazin-2-yl)methanesulfonamide] gave a half-maximal inhibitory concentration (IC50) of 4900 nM.

As to `CC(C)C[C@H](CO)Nc1nc(CC(C)c2ccnc(Cl)c2)nc(NS(C)(=O)=O)n1` (stereo in doubt) [Example 26, N-(4-((R*)-2-(2-chloropyridin-4-yl)propyl)-6-(((R)-1-hydroxy-4-methylpentan-2-yl)amino)-1,3,5-triazin-2-yl)methanesulfonamide], the IC50 amounted to 682 nM.

Compound `COc1ccc([C@H](C)Cc2nc(N[C@@H](CO)CC(C)C)nc(NS(C)(=O)=O)n2)c(OC)n1` (single isomer, unassigned) [Example 52, N-(4-((R*)-2-(2,6-Dimethoxypyridin-3-yl)propyl)-6-(((R)-1-hydroxy-4-methylpentan-2-yl)amino)-1,3,5-triazin-2-yl)methanesulfonamide] displayed an IC50 of 5520 nM. Against the preceding compound, the IC50 is about 8.1-fold higher.

On to `COc1ncc([C@H](C)Cc2nc(N[C@@H](CO)CC(C)C)nc(NS(C)(=O)=O)n2)cc1C` (single isomer, unassigned) [Example 15, N-(4-(((R)-1-Hydroxy-4-methylpentan-2-yl)amino)-6-((R*)-2-(6-methoxy-5-methylpyridin-3-yl)propyl)-1,3,5-triazin-2-yl)methanesulfonamide], for which the half-inhibitory concentration (IC50) came to 2990 nM. This IC50 lies about 1.8-fold lower than the previous one.

Turning to `CC(C)C[C@H](CO)Nc1nc(C[C@H](C)c2ccc(Cl)c(Cl)c2)nc(NS(C)(=O)=O)n1` (relative stereo) [Example 1, N-(4-((R*)-2-(3,4-Dichlorophenyl)propyl)-6-(((R)-1-hydroxy-4-methylpentan-2-yl)amino)-1,3,5-triazin-2-yl)methanesulfonamide], the IC50 is 1970 nM.

As for `CC(C)C[C@H](CO)Nc1nc(C[C@H](C)c2ccccc2)nc(NS(C)(=O)=O)n1` (single isomer, unassigned) [Example 147, N-(4-(((R)-1-Hydroxy-4-methylpentan-2-yl)amino)-6-((S*)-2-phenylpropyl)-1,3,5-triazin-2-yl)methanesulfonamide], the IC50 was over 10000 nM.

The target in another experiment is T1, CX3CR1. Description: hCX3CR1 [3H]-AZD8797 competitive binding assay (filter). Particulars: CHO-hCX3CR1 membranes, 2 nM [3H]-AZD8797. Summed up: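 CHO-hCX3CR1 membranes (9 μg/well) were incubated 2 h at room temperature with 2 nM [3H]-AZD8797 and varying competitor concentrations. Buffer: 25 mM HEPES pH 7.4, 10 mM MgCl2, 1 mM CaCl2, 0.5% BSA, 1% DMSO. Bound ligand was collected by vacuum filtration, washed in ice-cold buffer with 500 mM NaCl, and counted by scintillation.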
The compound `CC(C)C[C@H](CO)Nc1nc(C[C@@H](C)c2ccc(Cl)c(Cl)c2)nc(NS(C)(=O)=O)n1` (single isomer, unassigned) [Example 2, N-(4-((S*)-2-(3,4-Dichlorophenyl)propyl)-6-(((R)-1-hydroxy-4-methylpentan-2-yl)amino)-1,3,5-triazin-2-yl)methanesulfonamide] showed an IC50 of 361 nM. This lies in the sub-micromolar range.

In turn, `CC(C)C[C@H](CO)Nc1nc(C[C@H](C)c2ccc(F)cc2)nc(NS(C)(=O)=O)n1` (single isomer, unassigned) [Example 80, N-(4-((S*)-2-(4-Fluorophenyl)propyl)-6-(((R)-1-hydroxy-4-methylpentan-2-yl)amino)-1,3,5-triazin-2-yl)methanesulfonamide] showed an IC50 of 2210 nM. Compared with the last compound, the IC50 is about 6.1-fold higher.

Regarding `CC(C)C[C@H](CO)Nc1nc(CC(C)c2ccnc(Cl)c2)nc(NS(C)(=O)=O)n1` (stereo in doubt) [Example 26, N-(4-((R*)-2-(2-chloropyridin-4-yl)propyl)-6-(((R)-1-hydroxy-4-methylpentan-2-yl)amino)-1,3,5-triazin-2-yl)methanesulfonamide], the IC50 came to 44 nM.

For the compound `COc1ccc([C@H](C)Cc2nc(N[C@@H](CO)CC(C)C)nc(NS(C)(=O)=O)n2)c(OC)n1` (single isomer, unassigned) [Example 52, N-(4-((R*)-2-(2,6-Dimethoxypyridin-3-yl)propyl)-6-(((R)-1-hydroxy-4-methylpentan-2-yl)amino)-1,3,5-triazin-2-yl)methanesulfonamide], the IC50 is 450 nM.

Compound `COc1ncc([C@H](C)Cc2nc(N[C@@H](CO)CC(C)C)nc(NS(C)(=O)=O)n2)cc1C` (single isomer, unassigned) [Example 15, N-(4-(((R)-1-Hydroxy-4-methylpentan-2-yl)amino)-6-((R*)-2-(6-methoxy-5-methylpyridin-3-yl)propyl)-1,3,5-triazin-2-yl)methanesulfonamide] showed a half-inhibitory concentration (IC50) of 252 nM.

For the compound `CC(C)C[C@H](CO)Nc1nc(CC(C)c2ccc(OC(C)C)c(F)c2)nc(NS(C)(=O)=O)n1` (stereo partly drawn) [Example 140, N-(4-(2-(3-Fluoro-4-isopropoxyphenyl)propyl)-6-(((R)-1-hydroxy-4-methylpentan-2-yl)amino)-1,3,5-triazin-2-yl)methanesulfonamide], the IC50 came to 175 nM.

Regarding `CC(C)C[C@H](CO)Nc1nc(CC(C)c2ccc(CN3CCOCC3)cc2)nc(NS(C)(=O)=O)n1` (stereo partly drawn) [Example 95, N-(4-(((R)-1-Hydroxy-4-methylpentan-2-yl)amino)-6-(2-(4-(morpholinomethyl)phenyl)propyl)-1,3,5-triazin-2-yl)methanesulfonamide], the IC50 was found to be 657 nM.

`COCc1ccc(C(C)Cc2nc(N[C@@H](CO)CC(C)C)nc(NS(C)(=O)=O)n2)cc1` (stereo partly drawn) [Example 69, N-(4-(((R)-1-Hydroxy-4-methylpentan-2-yl)amino)-6-(2-(4-(methoxymethyl)phenyl)propyl)-1,3,5-triazin-2-yl)methanesulfonamide] registered an IC50 of 830 nM.

`CC(C)C[C@H](CO)Nc1nc(CC(C)c2cc(F)c(CO)c(F)c2)nc(NS(C)(=O)=O)n1` (stereo partly drawn) [Example 110, N-(4-(2-(3,5-Difluoro-4-(hydroxymethyl)phenyl)propyl)-6-(((R)-1-hydroxy-4-methylpentan-2-yl)amino)-1,3,5-triazin-2-yl)methanesulfonamide]: the half-inhibitory concentration (IC50) was 34 nM.

`CC(C)C[C@H](CO)Nc1nc(C[C@@H](C)c2cc(F)c(F)c(F)c2)nc(NS(C)(=O)=O)n1` (single isomer, unassigned) [Example 22, N-(4-(((R)-1-Hydroxy-4-methylpentan-2-yl)amino)-6-((R*)-2-(3,4,5-trifluorophenyl)propyl)-1,3,5-triazin-2-yl)methanesulfonamide] came in with an IC50 of 257 nM.

Take `CC(C)C[C@H](CO)Nc1nc(C[C@H](C)c2c(F)cc(Cl)cc2F)nc(NS(C)(=O)=O)n1` (single isomer, unassigned) [Example 43, N-(4-((S*)-2-(4-Chloro-2,6-difluorophenyl)propyl)-6-(((R)-1-hydroxy-4-methylpentan-2-yl)amino)-1,3,5-triazin-2-yl)methanesulfonamide]: the IC50 amounted to 9110 nM.

In turn, `CC(C)C[C@H](CO)Nc1nc(CC(C)c2cc(O)c3c(c2)CCCC3)nc(NS(C)(=O)=O)n1` (stereo partly shown) [Example 104] came in with an IC50 of 38 nM. Compared with the last compound, the IC50 is about 240-fold lower.

The compound `CC(C)C[C@H](CO)Nc1nc(CC(C)c2ccc3c(c2)CC(=O)N(C)C3)nc(NS(C)(=O)=O)n1` (stereo partly drawn) [Example 128, N-(4-(((R)-1-Hydroxy-4-methylpentan-2-yl)amino)-6-(2-(2-methyl-3-oxo-1,2,3,4-tetrahydroisoquinolin-6-yl)propyl)-1,3,5-triazin-2-yl)methanesulfonamide] returned a half-inhibitory concentration (IC50) of 241 nM. This IC50 is about 6.3-fold higher than that of the compound before.

`CC(C)C[C@H](CO)Nc1nc(CC(C)c2cccc(N)c2)nc(NS(C)(=O)=O)n1` (stereo partly drawn) [Example 121, N-(4-(2-(3-Aminophenyl)propyl)-6-(((R)-1-hydroxy-4-methylpentan-2-yl)amino)-1,3,5-triazin-2-yl)methanesulfonamide]: the IC50 turned out to be 21 nM.

Compound `CC(C)C[C@H](CO)Nc1nc(CCC(F)(F)c2ccc(Cl)cc2)nc(NS(C)(=O)=O)n1` [Example 153, (R)—N-(4-(3-(4-Chlorophenyl)-3,3-difluoropropyl)-6-((1-hydroxy-4-methylpentan-2-yl)amino)-1,3,5-triazin-2-yl)methanesulfonamide] displayed an IC50 of over 10000 nM.

`Cc1ccc(C(C)Cc2nc(N[C@@H](CO)CC(C)C)nc(NS(C)(=O)=O)n2)cc1F` (stereo partly drawn) [Example 56, N-(4-(2-(3-Fluoro-4-methylphenyl)propyl)-6-(((R)-1-hydroxy-4-methylpentan-2-yl)amino)-1,3,5-triazin-2-yl)methanesulfonamide] came in with an IC50 of 204 nM.

As for `CC(C)C[C@H](CO)Nc1nc(C[C@H](C)c2cc(F)c(Cl)c(F)c2)nc(NS(C)(=O)=O)n1` (single isomer, unassigned) [Example 32, N-(4-((S*)-2-(4-Chloro-3,5-difluorophenyl)propyl)-6-(((R)-1-hydroxy-4-methylpentan-2-yl)amino)-1,3,5-triazin-2-yl)methanesulfonamide], the IC50 amounted to 7560 nM.

`CC(C)C[C@H](CO)Nc1nc(CC(C)c2ccc(C#N)cc2)nc(NS(C)(=O)=O)n1` (stereo partly drawn) [Example 68, N-(4-(2-(4-Cyanophenyl)propyl)-6-(((R)-1-hydroxy-4-methylpentan-2-yl)amino)-1,3,5-triazin-2-yl)methanesulfonamide] came in with an IC50 of 336 nM.

For `CC(C)C[C@H](CO)Nc1nc(CC(C)c2cnc3ccccc3c2)nc(NS(C)(=O)=O)n1` (stereo partly drawn) [Example 134, N-(4-(((R)-1-Hydroxy-4-methylpentan-2-yl)amino)-6-(2-(quinolin-3-yl)propyl)-1,3,5-triazin-2-yl)methanesulfonamide], the IC50 amounted to 203 nM.

For the compound `CC(C)C[C@H](CO)Nc1nc(CC(C)c2cccc(C3COC3)c2)nc(NS(C)(=O)=O)n1` (stereo partly drawn) [Example 105, N-(4-(((R)-1-Hydroxy-4-methylpentan-2-yl)amino)-6-(2-(3-(oxetan-3-yl)phenyl)propyl)-1,3,5-triazin-2-yl)methanesulfonamide], the IC50 was found to be 123 nM. This IC50 is about 1.7-fold lower than that of the compound before.

Consider `CCOc1ccc(C(C)Cc2nc(N[C@@H](CO)CC(C)C)nc(NS(C)(=O)=O)n2)cc1` (stereo partly drawn) [Example 123, N-(4-(2-(4-Ethoxyphenyl)propyl)-6-(((R)-1-hydroxy-4-methylpentan-2-yl)amino)-1,3,5-triazin-2-yl)methanesulfonamide], for which the IC50 stood at 339 nM.

For `COc1ccc([C@@H](C)Cc2nc(N[C@@H](CO)CC(C)C)nc(NS(C)(=O)=O)n2)cc1F` (single isomer, unassigned) [Example 20, N-(4-((S*)-2-(3-Fluoro-4-methoxyphenyl)propyl)-6-(((R)-1-hydroxy-4-methylpentan-2-yl)amino)-1,3,5-triazin-2-yl)methanesulfonamide], the half-inhibitory concentration (IC50) is 958 nM.

For `CC(C)C[C@H](CO)Nc1nc(C[C@H](C)c2ccc(F)c(Cl)c2)nc(NS(C)(=O)=O)n1` (single isomer, unassigned) [Example 65, N-(4-((S*)-2-(3-Chloro-4-fluorophenyl)propyl)-6-(((R)-1-hydroxy-4-methylpentan-2-yl)amino)-1,3,5-triazin-2-yl)methanesulfonamide], the IC50 amounted to 4200 nM. Compared with the last compound, the IC50 is about 4.4-fold higher.

Compound `CCOc1ccc(C(C)Cc2nc(N[C@@H](CO)CC(C)C)nc(NS(C)(=O)=O)n2)cc1Cl` (stereo partly drawn) [Example 98, N-(4-(2-(3-Chloro-4-ethoxyphenyl)propyl)-6-(((R)-1-hydroxy-4-methylpentan-2-yl)amino)-1,3,5-triazin-2-yl)methanesulfonamide] returned an IC50 of 427 nM.

The values are drawn from patent publication US20240199558A1, “2,4,6-TRISUBSTITUTED 1,3,5-TRIAZINES AS MODULATORS OF CX3CR1” (ASTRAZENECA AB, priority 2022, published 2024).
